Tested on: SKOV-3 cells
Test: Trypan-blue cell viability after field treatment, SKOV-3
Type: cell-based, human
Conditions: PTX drug +, no field, 24-hour
Excerpt: After we confirmed that the drug-loaded MENs in the vicinity of the cancer cells indeed acted as a field-controlled valve to let the drug in (due to the effective nano-electroporation effect according to our hypothesis), we studied the viability of the cancer cells for different combinations of the drug and the carrier after the drug penetrated through the cell membrane. (Here, maintaining the remote field at 30 Oe provided the specificity to the cancer cells or, in other words, ensured that the healthy cells were intact.) The confocal images that were obtained after a 24-hour field treatment are in FIG. 13. The three key combinations of the carrier included (i) no particle, (ii) HER-2-GMO-MENs (Note: Here, HER-2 stands for the HER-2 biomarker antibody), and (iii) GMO-MENs, respectively. Accordingly, the three images (from left to right) in FIG. 13A show the morphology of the cancer cells after 24-hour treatment by (i) the free drug (with no particle carrier), (ii) drug-HER-2-GMO-MENs with no field applied, and (iii) drug-GMO-MENs in a 30-Oe d.c. field. The three control images in FIG. 13B show the morphology of the cancer cells after the 24-hour treatment by the same three combinations of the carrier with no drug present. In addition, we conducted the confocal imaging and the trypan-blue cell viability tests on both SKOV-3 and HOMEC cell lines after 24- and 36-hour field treatment. […]

With CC(=O)O[C@H]1C(=O)[C@@]2(C)[C@H]([C@H](OC(=O)c3ccccc3)[C@]3(O)C[C@H](OC(=O)[C@H](O)[C@@H](NC(=O)c4ccccc4)c4ccccc4)C(C)=C1C3(C)C)[C@]1(OC(C)=O)CO[C@@H]1C[C@@H]2O [FREE, Paclitaxel] the “Percentage Cells Alive” value was 86 ± 8.8%.

From patent US9895549B2, “On-demand drug release using magneto-electric nanoparticles” (priority 2012, dated 2018)
